In patent US20250319080A1, “BIO[…] FORMULATIONS AND METHODS OF USE AND MANUFACTURE THEREOF” (PURDUE RESEARCH FOUNDATION, priority 2022, published 2025):
In brackets after ≈: the same amount, converted by molar mass.

Assay: Solubility of buprenorphine FB in release media
Type: physicochemical
Conditions: 48 hours
Experimental: The solubility of buprenorphine FB was determined in PBS with 0.05% Tween 20 (PBST) and 0.5% w/v sodium dodecyl sulfate (SDS) in water. The solubility was determined by placing excess buprenorphine FB into the media mentioned above at 37° C. and shaking at 40 RPM for 48 hours. After 48 hours, a sample was taken and centrifuged at 15,000 RPM for 5 minutes. The supernatant was then collected and diluted with the same medium, and the concentration was determined using high-performance liquid chromatography.

## CO[C@@]12CC[C@@]3(C[C@@H]1[C@](C)(O)C(C)(C)C)[C@H]1Cc4ccc(O)c5c4[C@@]3(CCN1CC1CC1)[C@H]2O5 [Buprenorphine FB, Buprenorphine free base]
0.5% w/v sodium dodecyl sulfate in water, 37° C.
  Solubility in 0.5% SDS: 336 µg/mL (≈ 718 µM)
PBS with 0.05% Tween 20, 37° C.
  Solubility in PBST: 8.8 µg/mL (≈ 18.8 µM)
